The target in this assay is T1, NADH-ubiquinone oxidoreductase (Amphibalanus amphitrite, UniProt A0A6A4V2F0).
T1 construct: gene NDUFV1; native protein from solubilised cyprid lysate; 50 kD band
As to the kind of experiment: affinity pull-down on Affi-gel […] matrix, SDS-PAGE, UPLC-MS/MS. It is filed as biochemical. As to conditions: isocyanide 2 coupled to matrix via its amine (labelled compound); competed by 0.4 mg/ml free isocyanide 2; cyprid lysate; wash 500 mM NaCl, 1% Triton X100.

T1 sequence (A0A6A4V2F0 27-476): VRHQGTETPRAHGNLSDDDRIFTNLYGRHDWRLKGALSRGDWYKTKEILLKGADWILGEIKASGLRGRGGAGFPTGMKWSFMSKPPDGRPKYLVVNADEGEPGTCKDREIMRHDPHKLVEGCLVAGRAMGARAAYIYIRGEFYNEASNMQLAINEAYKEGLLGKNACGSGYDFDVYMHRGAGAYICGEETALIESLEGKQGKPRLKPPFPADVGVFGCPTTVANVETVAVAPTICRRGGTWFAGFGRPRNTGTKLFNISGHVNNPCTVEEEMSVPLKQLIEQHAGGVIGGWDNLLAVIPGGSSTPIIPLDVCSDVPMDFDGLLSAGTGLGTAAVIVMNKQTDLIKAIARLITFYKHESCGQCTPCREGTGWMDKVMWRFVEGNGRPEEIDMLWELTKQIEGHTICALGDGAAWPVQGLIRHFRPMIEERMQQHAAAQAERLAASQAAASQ

For `[C-]#[N+]C(C)(C)CCCCCCCCCN` [compound 2, 10-isocyano-10-methylundecan-1-amine], the “affinity pull-down on Affi-gel 10 matrix, SDS-PAGE, UPLC-MS/MS” value was “NADH-ubiquinone oxidoreductase was specifically identified in this protein band (Table S2)”.

For the origin of these results see article PMC3445549, “The Mode of Action of Isocyanide in Three Aquatic Organisms, Balanus amphitrite, Bugula neritina and Danio rerio” (PLoS ONE, 2012).
